Measurements from patent publication US20150329558A1, “FUSED HETEROCYCLIC COMPOUNDS AS ION CHANNEL MODULATORS” (Gilead Sciences, Inc., priority 2011, published 2015).
Like-named read-outs stand apart in the source and are kept apart here.

How the values were obtained:
[1] = biological target: wild-type human cardiac sodium channel, hNav1.5 (late INa) (Homo sapiens, UniProt Q14524); assay: Late INa screening assay (QPatch whole cell patch clamp); format: cell-based
Outline: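 HEK293 cells stably expressing hNav1.5 alpha subunit without beta subunits, QPatch automated whole-cell clamp at 23-25° C, CsF-based internal solution pH 7.4. Late INa induced by 10 μM tefluthrin; 250 ms steps to −20 mV from −120 mV at 0.1 Hz, compounds at 1 μM. Percent block of mean current 225–250 ms into the step.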

[2] = biological target: hERG potassium channel (Homo sapiens, UniProt Q12809); assay: hERG screening assay (PatchXpress, CHO cells); format: cell-based; details: % inhibition at 1 μM
hERG potassium channel, sequence (Q12809 whole entry): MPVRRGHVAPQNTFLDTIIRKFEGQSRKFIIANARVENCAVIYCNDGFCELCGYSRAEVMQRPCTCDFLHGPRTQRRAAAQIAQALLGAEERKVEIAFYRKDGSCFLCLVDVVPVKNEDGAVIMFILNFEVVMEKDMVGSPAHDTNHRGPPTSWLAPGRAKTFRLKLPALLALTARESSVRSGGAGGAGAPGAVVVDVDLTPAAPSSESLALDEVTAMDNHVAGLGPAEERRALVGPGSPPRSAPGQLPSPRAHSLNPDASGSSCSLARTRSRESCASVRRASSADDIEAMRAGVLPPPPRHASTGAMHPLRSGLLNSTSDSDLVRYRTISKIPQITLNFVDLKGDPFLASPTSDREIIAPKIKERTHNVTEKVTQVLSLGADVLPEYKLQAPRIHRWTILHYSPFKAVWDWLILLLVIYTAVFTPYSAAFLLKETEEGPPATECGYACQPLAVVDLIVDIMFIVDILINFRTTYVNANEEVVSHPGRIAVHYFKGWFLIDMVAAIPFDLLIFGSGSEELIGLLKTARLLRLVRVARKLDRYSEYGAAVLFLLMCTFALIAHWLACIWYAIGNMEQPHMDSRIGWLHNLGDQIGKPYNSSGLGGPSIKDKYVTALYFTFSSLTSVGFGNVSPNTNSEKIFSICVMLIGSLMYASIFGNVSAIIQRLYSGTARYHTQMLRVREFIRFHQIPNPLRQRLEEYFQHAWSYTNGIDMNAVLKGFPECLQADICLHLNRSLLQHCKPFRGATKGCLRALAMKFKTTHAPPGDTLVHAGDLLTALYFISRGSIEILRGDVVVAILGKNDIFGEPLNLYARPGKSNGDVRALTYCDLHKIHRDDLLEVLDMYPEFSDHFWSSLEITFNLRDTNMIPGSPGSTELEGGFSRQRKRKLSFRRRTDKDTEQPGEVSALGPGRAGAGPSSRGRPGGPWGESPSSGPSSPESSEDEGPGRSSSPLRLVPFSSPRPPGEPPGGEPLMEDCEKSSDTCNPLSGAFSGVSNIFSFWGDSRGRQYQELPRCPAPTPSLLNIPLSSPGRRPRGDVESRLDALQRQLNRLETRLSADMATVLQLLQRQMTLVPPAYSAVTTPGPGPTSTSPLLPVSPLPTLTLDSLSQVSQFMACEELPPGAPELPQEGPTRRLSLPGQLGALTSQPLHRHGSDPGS
Protocol: Compounds were also tested for their effect to block the hERG K^+ channel.
Compounds were screened to test their activity in blocking the hERG potassium channel at AVIVA Biosciences (San Deigo, Calif., USA). The hERG channel is heterologously expressed in a CHO (Chinese Hamster Ovary) cell line. Cells were maintained with standard tissue culture procedures and stable channel expression was maintained with 500 μg/mL G418 in the culture medium. Cells were harvested for testing on the PatchXpress 7000A automated patch clamp with Accumax (Innovative Cell Technologies, San Diego, Calif.) to isolate single cells.
The following solutions were used for electrophysiological recordings. The external solution contained: 2 mM CaCl2; 2 mM MgCl2; 4 mM KCl; 150 mM NaCl; 10 mM Glucose; 10 mM HEPES (pH 7.4 with 1M NaOH; osmolarity, ˜310 mOsm). The internal solution contained: 140 mM KCl, 10 mM MgCl2, 6 mM EGTA, 5 mM HEPES, 5 mM ATP (pH adjusted to 7.25 with KOH; osmolarity, ˜295 mOsm).
hERG channels were activated when the voltage was first stepped to −50 mV for 300 ms from the −80 mV holding potential and then stepped to +20 mV for 5 seconds. At +20 mV the channels open and then largely inactivate, so the currents are relatively small. Upon returning to −50 mV from +20 mV, hERG currents transiently become much larger as inactivation is rapidly removed and then the channel closes. The first step to −50 mV for 300 ms was used as a baseline for measuring the peak amplitude during the step to −50 mV after channel activation. The peak tail current at −50 mV was measured both under control conditions and after addition of compound, each cell serving as its own control.
All compounds were prepared as 10 mM DMSO stocks in glass vials. Stock solutions were mixed by vigorous vortexing and sonication for about 2 minutes at room temperature. For testing, compounds were diluted in glass vials using an intermediate dilution step in pure DMSO and then further diluted to working concentrations in external solution. Dilutions were prepared no longer than 20 minutes before use.
For the electrophysiological recordings, after achieving the whole-cell configuration, cells were monitored for 90 seconds to assess stability and washed with external solution for 66 seconds. The voltage protocol described above was then applied to the cells every 12 seconds and throughout the whole procedure. Only cells with stable recording parameters and meeting specified health criteria were allowed to enter the compound addition procedure.
External solution containing 0.1% DMSO (vehicle) was applied to the cells first to establish the control peak current amplitude. After allowing the current to stabilize for 3 to 5 minutes, 1 μM and then 10 μM test compounds were applied. Each compound concentration was added 4 times and cells were kept in test solution until the effect of the compound reached steady state or for a maximum of 12 minutes. After addition of test compound, a positive control (1 μM Cisapride) was added and must block >95% of the current for the experiment to be considered valid. Washout in the external solution compartment was performed until the recovery of the current reached steady state.

[3] = Microsomal stability assay, rat; format: in vitro ADME; details: metabolic stability, rat liver microsomes 0.5 mg/mL, substrate 3 uM
Outline: (§1)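 Liver microsomes at 0.5 mg/mL protein in 100 mM KPO4 buffer, incubated with 3 uM compound and NADPH-regenerating system, run in duplicate. Samples taken at 2, 12, 25, 45 and 65 min and quenched in MeOH/ACN/water before analysis.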

[4] = Microsomal stability assay, dog; format: in vitro ADME; details: metabolic stability, dog liver microsomes 0.5 mg/mL, substrate 3 uM
Outline: as §1

[5] = Microsomal stability assay, human; format: in vitro ADME; details: metabolic stability, human liver microsomes 0.5 mg/mL, substrate 3 uM
Outline: as §1

[6] = biological target: T1, hNav1.1 (Homo sapiens, UniProt P35498); assay: Nav1.1 use-dependent block, whole-cell voltage clamp; format: cell-based; details: use-dependent block 10 Hz, read-out: NAv1.1*-CHAN TEST-UDB-10 HZ-
T1 construct: expressed in transfected cells; host or cells: HEK293, transient transfection (α1:β1:β2 = 10:1:1)

[7] = biological target: T2, Human Nav1.2 (Homo sapiens, UniProt Q99250); assay: Nav1.2 use-dependent block, whole-cell voltage clamp; format: cell-based; details: use-dependent block 10 Hz, read-out: NAv1.2*-CHAN TEST-UDB-10 HZ-
T2 construct: expressed in transfected cells
T2 sequence (Q99250 whole entry): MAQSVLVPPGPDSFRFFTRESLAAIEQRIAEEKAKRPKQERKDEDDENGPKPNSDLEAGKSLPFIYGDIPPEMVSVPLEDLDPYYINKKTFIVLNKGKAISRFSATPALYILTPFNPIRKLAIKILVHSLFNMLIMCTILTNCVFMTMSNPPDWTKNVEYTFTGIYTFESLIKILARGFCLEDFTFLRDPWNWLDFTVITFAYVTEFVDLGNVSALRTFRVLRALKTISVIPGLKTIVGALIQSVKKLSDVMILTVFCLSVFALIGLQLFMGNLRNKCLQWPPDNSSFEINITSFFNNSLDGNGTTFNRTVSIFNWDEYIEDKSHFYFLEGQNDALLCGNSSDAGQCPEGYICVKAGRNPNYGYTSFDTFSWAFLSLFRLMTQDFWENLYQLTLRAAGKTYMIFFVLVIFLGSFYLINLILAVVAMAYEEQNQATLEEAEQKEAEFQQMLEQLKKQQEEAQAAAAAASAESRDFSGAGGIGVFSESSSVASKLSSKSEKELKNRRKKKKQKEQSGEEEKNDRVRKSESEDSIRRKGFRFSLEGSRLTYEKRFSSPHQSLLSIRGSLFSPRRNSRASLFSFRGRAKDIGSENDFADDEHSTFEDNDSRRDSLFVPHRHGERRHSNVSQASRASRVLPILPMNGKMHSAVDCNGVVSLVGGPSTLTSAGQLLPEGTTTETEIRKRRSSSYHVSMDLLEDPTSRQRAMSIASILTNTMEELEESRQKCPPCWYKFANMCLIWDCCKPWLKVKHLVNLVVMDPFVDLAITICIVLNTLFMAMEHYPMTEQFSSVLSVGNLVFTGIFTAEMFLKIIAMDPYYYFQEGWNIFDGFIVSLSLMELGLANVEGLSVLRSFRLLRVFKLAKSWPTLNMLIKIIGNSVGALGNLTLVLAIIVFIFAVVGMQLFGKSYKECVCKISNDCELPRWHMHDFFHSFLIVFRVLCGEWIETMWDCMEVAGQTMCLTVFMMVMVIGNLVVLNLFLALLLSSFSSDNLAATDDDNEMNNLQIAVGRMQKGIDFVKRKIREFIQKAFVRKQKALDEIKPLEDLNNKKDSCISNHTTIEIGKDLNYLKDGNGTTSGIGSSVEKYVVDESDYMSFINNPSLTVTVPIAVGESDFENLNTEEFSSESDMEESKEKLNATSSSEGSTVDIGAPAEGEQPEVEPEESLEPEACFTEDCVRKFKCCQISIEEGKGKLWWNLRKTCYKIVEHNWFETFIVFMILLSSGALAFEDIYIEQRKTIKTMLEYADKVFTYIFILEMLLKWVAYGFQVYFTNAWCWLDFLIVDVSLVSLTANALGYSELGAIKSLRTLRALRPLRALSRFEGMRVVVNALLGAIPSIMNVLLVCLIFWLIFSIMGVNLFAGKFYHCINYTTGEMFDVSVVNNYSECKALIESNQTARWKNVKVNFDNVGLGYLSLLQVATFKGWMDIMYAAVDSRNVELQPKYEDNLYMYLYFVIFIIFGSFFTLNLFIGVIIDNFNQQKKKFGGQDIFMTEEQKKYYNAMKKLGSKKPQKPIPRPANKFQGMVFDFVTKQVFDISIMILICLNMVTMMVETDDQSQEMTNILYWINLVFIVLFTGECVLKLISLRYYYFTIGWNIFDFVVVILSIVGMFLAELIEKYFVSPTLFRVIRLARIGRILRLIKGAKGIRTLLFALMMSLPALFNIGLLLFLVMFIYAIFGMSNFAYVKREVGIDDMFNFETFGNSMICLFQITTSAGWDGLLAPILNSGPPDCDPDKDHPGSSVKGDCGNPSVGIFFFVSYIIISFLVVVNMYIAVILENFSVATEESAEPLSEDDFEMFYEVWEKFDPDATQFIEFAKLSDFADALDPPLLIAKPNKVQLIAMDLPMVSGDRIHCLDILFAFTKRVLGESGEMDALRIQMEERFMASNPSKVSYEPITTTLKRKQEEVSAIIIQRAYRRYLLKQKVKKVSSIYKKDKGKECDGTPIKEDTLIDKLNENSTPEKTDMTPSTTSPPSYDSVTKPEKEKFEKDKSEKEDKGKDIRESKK
Description: Wild-type (WT) cDNA stably transfected in Chinese hamster ovary (CHO) cells is used to record INa. Unless otherwise noted, all reagents are purchased from Sigma-Aldrich (St Louis, Mo., U.S.A.).
Whole-cell voltage-clamp recordings are used to measure the biophysical properties of WT. Briefly, the pipette solution consists of (in mM) 110 CsF, 10 NaF, 20 CsCl, 2 EGTA, 10 HEPES, with a pH of 7.35 and osmolarity of 300 mOsmol/kg. The bath (control) solution contains in (mM): 145 NaCl, 4 KCl, 1.8 CaCl2, 1 MgCl2, 10 dextrose, 10 HEPES, with a pH of 7.35 and osmolarity of 310 mOsmol/kg. Cells are allowed to stabilize for 10 min after establishment of the whole-cell configuration before current is measured. Series resistance is compensated 90% to assure that the command potential is reached within microseconds with a voltage error <2 mV. Leak currents are subtracted by using an online P/4 procedure and all currents are low-pass Bessel filtered at 5 kHz and digitized at 50 kHz.
Tonic block of peak current is measured using a step to −10 mV (20 ms) from a holding potential of −120 mV (0.2 Hz). Use-dependent block of peak current is measured during pulse number 300 of a pulse train (−10 mV, 5 ms, 300 pulses, 10 Hz or 25 Hz) from a holding potential of −120 mV. Two sequential pulse train stimulations are averaged to obtain mean current traces for each recording condition, which are then used for offline subtraction and analysis.
For use-dependent studies, cells are stimulated with depolarizing pulse trains (−10 mV, 5 ms, 300 pulses, 10 and 25 Hz) from a holding potential of −120 mV. Currents are then normalized to the peak current recorded in response to the first pulse in each frequency train. For tonic block studies, peak current is evaluated in response to a 20 ms depolarization to −10 mV (0.2 Hz). Data analysis is performed using Clampfit 9.2 (Axon Instruments, Union City, Calif., U.S.A), Excel 2002 (Microsoft, Seattle, Wash., U.S.A.), and OriginPro 7.0 (OriginLab, Northampton, Mass., U.S.A) software. Results are presented as mean±SEM.
A stock solution of 10 mM compound of Formula I is prepared in 0.1 M HCl or DMSO. A fresh dilution of the compound of Formula I in the bath solution is prepared every experimental day and the pH is readjusted to 7.35 as necessary. The final DMSO concentration was kept at 0.1% in all solutions. Direct application of the perfusion solution to the clamped cell is achieved using the Perfusion Pencil system (Automate, Berkeley, Calif.). Direct cell perfusion is driven by gravity at a flow rate of 350 μL/min using a 250 micron tip. This system sequesters the clamped cell within a perfusion stream and enables complete solution exchange within 1 second. The clamped cell is perfused continuously starting immediately after establishing the whole-cell configuration. Control currents are measured during control solution perfusion.
Solutions are perfused for three minutes prior to current recordings to allow equilibrium (tonic) drug block. Tonic block of peak currents is measured from this steady-state condition. Three sequential current traces are averaged to obtain a mean current for each recording. The mean current traces are utilized for offline analysis. Use-dependent block of peak current is measured during pulse number 300 of the pulse train, (−10 mV, 5 ms, 300 pulses, 10 Hz) from a holding potential of −120 mV. Two sequential pulse train stimulations are averaged to obtain mean current traces for each recording condition, which are then used for offline subtraction and analysis. Where appropriate, concentration inhibition curves are fit with the Hill equation: I/Imax=1/[1+10̂(log IC50−I)*k], where IC50 is the concentration that produces half inhibition and k is the Hill slope factor.

[8] = % inhibition at 1 μM, read-out: NAv1.5*-LATE-
[9] = percent block of late INa, compound at 1 μM, 10 μM Tefluthrin, HEK293 hNav1.5, read-out: Late INa 1 μM

wild-type human cardiac sodium channel, hNav1.5 (late INa), sequence (Q14524 whole entry): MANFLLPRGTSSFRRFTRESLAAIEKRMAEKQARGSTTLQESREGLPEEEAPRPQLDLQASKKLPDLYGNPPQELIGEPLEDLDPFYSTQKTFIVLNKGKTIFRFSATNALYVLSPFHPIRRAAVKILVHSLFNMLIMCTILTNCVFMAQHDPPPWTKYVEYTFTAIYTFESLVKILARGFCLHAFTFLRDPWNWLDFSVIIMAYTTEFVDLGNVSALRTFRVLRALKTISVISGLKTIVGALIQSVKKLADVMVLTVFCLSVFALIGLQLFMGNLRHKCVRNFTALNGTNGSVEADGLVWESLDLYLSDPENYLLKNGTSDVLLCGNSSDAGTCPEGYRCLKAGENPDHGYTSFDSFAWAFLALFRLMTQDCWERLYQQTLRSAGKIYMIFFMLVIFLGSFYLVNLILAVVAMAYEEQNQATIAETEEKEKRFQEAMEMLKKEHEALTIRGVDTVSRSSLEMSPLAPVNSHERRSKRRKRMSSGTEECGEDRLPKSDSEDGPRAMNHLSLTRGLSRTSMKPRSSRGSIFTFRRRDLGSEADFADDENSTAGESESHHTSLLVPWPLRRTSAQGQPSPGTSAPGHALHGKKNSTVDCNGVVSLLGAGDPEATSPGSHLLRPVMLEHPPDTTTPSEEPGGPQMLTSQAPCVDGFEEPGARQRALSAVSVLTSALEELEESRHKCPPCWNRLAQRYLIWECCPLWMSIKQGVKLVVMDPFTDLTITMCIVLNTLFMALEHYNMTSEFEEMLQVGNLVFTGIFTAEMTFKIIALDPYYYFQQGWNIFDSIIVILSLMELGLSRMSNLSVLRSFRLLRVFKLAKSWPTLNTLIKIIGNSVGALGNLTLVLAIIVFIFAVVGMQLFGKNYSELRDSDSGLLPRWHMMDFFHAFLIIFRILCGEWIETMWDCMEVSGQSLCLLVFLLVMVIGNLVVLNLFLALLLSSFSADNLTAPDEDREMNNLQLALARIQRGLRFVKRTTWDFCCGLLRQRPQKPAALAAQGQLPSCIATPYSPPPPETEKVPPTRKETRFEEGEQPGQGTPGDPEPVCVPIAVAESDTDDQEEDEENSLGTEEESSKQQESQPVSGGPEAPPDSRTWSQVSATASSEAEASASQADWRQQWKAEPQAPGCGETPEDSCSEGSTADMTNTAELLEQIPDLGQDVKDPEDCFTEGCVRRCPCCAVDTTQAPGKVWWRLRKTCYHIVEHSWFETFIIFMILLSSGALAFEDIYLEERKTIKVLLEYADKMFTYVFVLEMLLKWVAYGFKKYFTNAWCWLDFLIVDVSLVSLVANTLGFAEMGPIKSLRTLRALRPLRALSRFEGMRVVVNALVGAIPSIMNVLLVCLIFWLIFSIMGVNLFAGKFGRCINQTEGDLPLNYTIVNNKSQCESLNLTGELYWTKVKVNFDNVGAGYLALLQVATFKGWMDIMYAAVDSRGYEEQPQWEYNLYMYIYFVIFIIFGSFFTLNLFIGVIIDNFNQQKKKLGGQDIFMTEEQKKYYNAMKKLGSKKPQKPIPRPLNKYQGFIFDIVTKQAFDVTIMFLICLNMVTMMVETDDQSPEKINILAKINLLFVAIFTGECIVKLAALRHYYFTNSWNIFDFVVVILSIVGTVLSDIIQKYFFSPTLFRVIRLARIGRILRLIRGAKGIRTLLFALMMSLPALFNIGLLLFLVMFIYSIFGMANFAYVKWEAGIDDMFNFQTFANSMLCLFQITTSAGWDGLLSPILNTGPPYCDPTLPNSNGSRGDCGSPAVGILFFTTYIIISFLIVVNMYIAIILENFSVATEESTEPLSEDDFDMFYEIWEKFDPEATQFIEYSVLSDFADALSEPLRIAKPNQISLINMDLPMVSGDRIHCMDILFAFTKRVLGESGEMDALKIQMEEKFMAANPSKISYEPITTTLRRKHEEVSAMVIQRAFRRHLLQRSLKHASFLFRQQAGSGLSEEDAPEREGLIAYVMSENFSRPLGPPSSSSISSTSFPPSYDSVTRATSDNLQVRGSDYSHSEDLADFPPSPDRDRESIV

Row | Structure (SMILES) | inhibition at 1 µM [1, 8] [%] | inhibition at 1 µM [1, 9] [%] | HERG* [2] [%] | MS Rat THalf [3] [min] | MS Dog THalf [4] [min] | MS Human THalf [5] [min] | inhibition at 1 µM [6] [%] | inhibition at 1 µM [7] [%]
1 | O=c1c2cc(-c3ccc(OC(F)(F)F)cc3)ccc2nnn1CCOc1nccc(-c2noc(C3CC3)n2)n1 [II-60, 3-(2-(4-(5-cyclopropyl-1,2,4-oxadiazol-3-yl)pyrimidin-2-yloxy)ethyl)-6-(4-(trifluoromethoxy)phenyl)benzo[d][1,2,3]triazin-4(3H)-one] | 32 | 32 | 31 | > 395 | 356 | 362 |  | 
2 | O=c1c2cc(-c3ccc(OC(F)(F)F)cc3)ccc2nnn1Cc1nnc(C2CC2)s1 [II-66, 3-((5-cyclopropyl-1,3,4-thiadiazol-2-yl)methyl)-6-(4-(trifluoromethoxy)phenyl)benzo[d][1,2,3]triazin-4(3H)-one] | 39 | 39 | 23 | 181 | > 395 | > 395 |  | 
3 | Cc1noc(Cn2ncc3ccc(-c4ccc(OC(F)(F)F)cc4)cc3c2=O)n1 [III-2, 2-((3-methyl-1,2,4-oxadiazol-5-yl)methyl)-7-(4-(trifluoromethoxy)phenyl)phthalazin-1(2H)-one] | 40 | 40 |  | 222 | 68 | 333 | 27.6 | 5
4 | O=c1c2cc(-c3ccc(OC(F)(F)F)cc3)ccc2cnn1Cc1ncc(Cl)cn1 [III-35, 2-((5-chloropyrimidin-2-yl)methyl)-7-(4-(trifluoromethoxy)phenyl)phthalazin-1 (2H)-one] | 38 | 38 | 17 | 296 | 85 | > 395 |  | 
